Laboratory results as given in patent US20240150286A1, “PEROXISOME PROLIFERATOR-ACTIVATED RECEPTOR GAMMA (PPARy) LIGANDS AND METHODS OF USE AS TREATMENTS FOR INSULIN RESISTANCE, OBESITY, FATTY LIVER DISEASE, AND TYPE 2 DIABETES” (The Board of Regents of the University of Oklahoma, priority 2022, published 2024).

Key:
liver of DIO mice = assay: Liver steatosis in DIO mice (H&E histology, qRT-PCR); type: in vivo, mouse; settings: vs vehicle
Protocol: (§1) C57BL/6J male mice were obtained from Jackson laboratory (Bar Harbor, ME) and maintained on a 12 h light (6:00 AM to 6:00 PM)—12 h dark (6:00 PM to 6:00 AM) cycle at an ambient temperature of 22±1° C. All animals had access to diet and water ad libitum. All procedures involving animals were approved by the Institutional Animal Care and Use Committee of the University of Oklahoma Health Science Center. All experiments were performed with age-matched male mice. The mice were fed a high-fat diet (HFD) (60% kcal fat, Bio-Serv, NJ, USA) starting from the age of 6 weeks until study end. […] Food intake was determined manually by measuring the amount of input food subtracting the amount of the food remaining in the food hopper and the crumbs on the bedding of the cage each day for three days during the 4th week of the treatment. Packed cell volume (PCV) was measured with blood drawn from tail on a LW Scientific E8 centrifuge (LW Scientific, Lawrenceville, Georgia, USA) microhematocrit centrifuge at the end of study. For all other measurements, the blood was drawn at the time of euthanization.
Liver, heart, bone, adipose tissues were dissected and immediately fixed in 4% paraformaldehyde (Sigma-Aldrich), paraffin embedded, and stained with hematoxylin and eosin. For Immunofluorescence staining, the eWAT and iWAT paraffin sections were incubated with primary antibody (rabbit polyclonal to F4/80 [1:500, Cat #: 70076], Cell Signaling Technology) overnight at 4° C. after deparaffinization. […]
(§2) Total RNA (2 μg) was isolated from tissues or cells using TRIzol reagents (Life Technologies) and reverse transcribed using oligo d(T) primers (New England Biosystems) and SuperScript IV reverse transcription kit (Applied Biosystems). qPCR was performed in a CFX96 Touch Real-Time PCR detection system using SYBR Green mix (Applied Biosystems). […] Relative mRNA expression was determined by the ΔΔCt method normalized to TBP mRNA. […]

[1] = tested on: diet-induced obesity (DIO) mice; assay: TZD-associated side effects in DIO mice (PCV, heart weight, cardiac and bone genes); type: in vivo, mouse
Protocol: as §1
(§3) Total RNA (2 μg) was isolated from tissues or cells using TRIzol reagents (Life Technologies) and reverse transcribed using oligo d(T) primers (New England Biosystems) and SuperScript IV reverse transcription kit (Applied Biosystems). qPCR was performed in a CFX96 Touch Real-Time PCR detection system using SYBR Green mix (Applied Biosystems). The amplification program was as follows: initial denaturation at 95° C. for 15 min, followed by 40 cycles of 95° C. for 15 s, 60° C. for 1 min, and 40° C. for 30 s. Relative mRNA expression was determined by the ΔΔCt method normalized to TBP mRNA.

3T3-L1 cells = assay: 3T3-L1 adipocyte differentiation (Oil Red O staining, adipogenic gene mRNA); type: cell-based, mouse
Protocol: 3T3-L1 preadipocytes were differentiated. In brief, cells at around 60%-70% confluence were induced for differentiation with DMEM containing 10% FBS, 1 μg/ml insulin, 1 μM dexamethasone, and 0.5 mM IBMX for 48 h in the presence or absence of compounds and were then exposed in maintenance medium (1 μg/mL insulin in 10% FBS/DMEM) containing compounds. The medium was renewed every 2 days for total 8 days of differentiation when the cells became differentiated and lipid droplets were apparent. For primary preadipocyte differentiation, isolation of primary preadipocytes was performed. Briefly, fat depots were digested in PBS containing collagenase D (1.5 U/ml) at 37° C. for 40-45 min. The primary cells were filtered through 70 μm cell strainer and centrifuge at 700 g to collect stromal vascular fraction (SVF). The SVF cell pellets were plated on collagen coated plates. […]
as §2

[2] = tested on: adipose tissues (iWAT, eWAT, BAT) of DIO mice; assay: Adipose tissue analyses in DIO mice (pS273 Western, qRT-PCR, UCP1, histology, CLS); type: in vivo, mouse
Protocol: as §1
Liver, heart, bone, adipose tissues were dissected and immediately fixed in 4% paraformaldehyde (Sigma-Aldrich), paraffin embedded, and stained with hematoxylin and eosin. For Immunofluorescence staining, the eWAT and iWAT paraffin sections were incubated with primary antibody (rabbit polyclonal to F4/80 [1:500, Cat #: 70076], Cell Signaling Technology) overnight at 4° C. after deparaffinization. The slides were washed thrice with PBS with 0.2% Triton and then incubated in secondary antibody, Alexa 488 anti-rabbit (1:500, Jackson ImmunoResearch, PA) for 1.5 h at room temperature. Tissue sections were imaged on the Olympus Fluoview 1000 laser-scanning confocal microscope (Center Valley, PA).
as §3, with “mRNA. The sequences of primers used in this study were shown in Table 1 in U.S. Provisional Application Ser. No. 63/419,049, the entirety of which is incorporated herein by reference.” for “mRNA.”
Proteins were extracted with RIPA buffer containing protease and phosphatase inhibitors (Thermo) and then centrifuged for 10 min at 10,000 g. A 30 μg sample of protein was separated on a 10% SDS polyacrylamide gel and transferred to polyvinylidene-fluoride membrane for 1 h at 4° C. at 40 V. The membrane was blocked in TBS (10 mm Tris-HCl, pH 7.4, 150 mm NaCl) containing 5% non-fat dry milk for 1 h at room temperature and was probed with primary antibodies followed by the appropriate HRP-conjugated secondary antibodies (Anti-rabbit IgG, #7074, or Anti-mouse IgG, #7076, 1:5000 Cell Signaling Technology). The primary antibodies used were: anti-Ser-273 PPARγ (bs-4888R, Bioss Antibodies), anti-PPARγ antibody (sc-271392, Santa Cruz Biotechnology), anti-UCP1 (14670S, Cell Signaling Technology, Beverly, MA, USA).

[3] = SVF of inguinal and epididymal adipose tissues, DIO mice
[4] = eWAT of DIO mice, 15 mg/kg i.p. daily 4 weeks

SMILES: Cc1c(C)n(Cc2ccc(-c3ccccc3C(=O)O)cc2)c2ccc(C(=O)NCc3cccc(O)c3)cc12 [WO95E, 4′-((5-((3-hydroxybenzyl)carbamoyl)-2,3-dimethyl-1H-indol-1-yl)methyl)-[1,1′-biphenyl]-2-carboxylic acid]
- number of lipid droplets in the liver (liver of DIO mice; H&E): markedly reduced
- expression levels of PEPCK and G6PC in liver (liver of DIO mice): significantly decreased
- lipogenic genes FASN, SCD-1, ACC in liver (liver of DIO mice): down-regulated
- mRNA levels of bone formation genes (Bglap, SPP1, ColA1) ([1]; 4-week treatment): no apparent effect
- packed-cell volume (PCV) ([1]; indicator of hemodilution): unchanged
- heart weight ([1]; relative to vehicle): no effect
- mRNA levels of Myh7 and Nppb in heart ([1]; vs vehicle): not significantly altered or even lowered
- mRNA levels of adipogenic genes PPARγ, FABP4, Glut4, PEPCK, C/EBPa (3T3-L1 cells; 3T3-L1, compounds at 10 μM, qRT-PCR): only minimally or moderately increased
- Oil Red O staining / adipocyte differentiation (3T3-L1 cells; 3T3-L1, differentiation media, compounds at 10 μM): only marginally increased Oil Red O staining level
- PPARγ S273 phosphorylation in iWAT ([2]; DIO mice, 15 mg/kg i.p. daily 4 weeks, Western blot): markedly inhibited
- mRNA levels of browning/thermogenic genes (Prdm16, Cidea, Ppara, CPT1a, UCP1, Cox5b, PGC1α) in iWAT ([2]; DIO mice, 15 mg/kg i.p. daily 4 weeks, vs vehicle): significantly increased
- adipocyte size in eWAT and iWAT ([2]; DIO mice, H&E sections, vs vehicle): significantly smaller
- UCP1 protein in iWAT and eWAT ([2]; DIO mice, Western blotting): dramatic induction
- UCP1 protein in BAT ([2]; DIO mice, data not shown): an increase
- mRNA levels of thermogenic genes in BAT ([2]; DIO mice, data not shown): increased mRNA expression levels of most of these genes
- areas of crown-like structures (CLS) in iWAT and eWAT ([2]; DIO mice, vs vehicle): dramatically reduced
- mRNA levels of M2 macrophage markers (IL4, IL10, Mg1I) [2, 3]: up-regulated or unchanged
- mRNA levels of pan-macrophage markers (CD68, F4/80) [2, 3]: significantly decreased
- genes involved in lipogenesis or adipogenesis [2, 4]: inhibited
- mRNA levels of S273 phosphorylation-repressed genes (Adiponectin, Adipsin, selenbp1, Car3, Ddx-17, Acyl, Rarres2, Cidec) [2, 4]: up-regulated
- mRNA levels of proinflammatory M1 mediators (TNFα, IL1b, IL-6, mcp-1) ([2]; iWAT and eWAT, DIO mice): down-regulated
